Results as given in patent US10925280B2, “Solid agrochemical compositions” (UPL LIMITED, priority 2015, dated 2021).

What was measured:
[1] = Physical appearance in open containers at ambient conditions; assay type: physicochemical
Source text: The appearances for the granular compositions prepared according to the present invention were investigated in open containers at ambient conditions.
(§1) It has been observed that the granular compositions according to the present inventions are dry solids as evidenced by the appearance. […] Further, the granules were appeared as dry solids after 6 months of storage. The inventors of the present invention confirmed the stability of the granules by investigating the weight gain of the compositions and by calculating the relative weight gain with respect to glufosinate salt. The weight gain of the granular compositions according to the present invention were investigated at 30° C. and 60% humidity as per ASTM (1996) method and the results are summarized in the below table (Table 3).

[2] = Weight gain (uptake of moisture) at 30° C. and 60% humidity as per ASTM (1996) method; assay type: physicochemical
Source text: as §1
Relative % weight gain of the composition is calculated using the formula given below:
[formula] [formula] • wherein X is glufosinate ammonium technical

Which “Appearance at 0 hrs” value ([1]; 0 hrs) does the source give for `CP(=O)(O)CCC(N)C(=O)O` (stereo not shown) [Glufosinate ammonium, 2-amino-4-[hydroxy(methyl)phosphinoyl]butyric acid] here?
The value was “Dry solid”.

What about the “Appearance After 24 hrs” value ([1]; 24 hrs) of the same molecule?
The value was “Wet solid”.

And the “Appearance After 72 hrs” value ([1]; 72 hrs)?
Its value is “Liquid”.

And the “% weight gain after 24 hrs” value ([2]; 24 hrs)?
The value was 1.834%.

And the “Weight of sample after 24 hrs” value ([2]; 24 hrs)?
Its value is 1.0219 g.

And the “Relative % weight gain after 24 hrs” value ([2]; 24 hrs, relative to glufosinate ammonium technical)?
Its value is 100%.

And the “Weight of sample” value ([2]; start)?
The value was 1.0035 g.
